Results from PMC4135079 (Journal of pharmacological and toxicological methods, 2013).

Columns and labels:
hERG [1] = target: hERG (Homo sapiens, UniProt Q12809)
[2] = human Thorough-QT study; ref Gintant, 2011; cited from earlier work
hERG [3] = settings: read-out: hERG IC50; ref FDA pharmacology review (022068s000_PharmR_P1.pdf); cited from earlier work

hERG, sequence (Q12809 whole entry): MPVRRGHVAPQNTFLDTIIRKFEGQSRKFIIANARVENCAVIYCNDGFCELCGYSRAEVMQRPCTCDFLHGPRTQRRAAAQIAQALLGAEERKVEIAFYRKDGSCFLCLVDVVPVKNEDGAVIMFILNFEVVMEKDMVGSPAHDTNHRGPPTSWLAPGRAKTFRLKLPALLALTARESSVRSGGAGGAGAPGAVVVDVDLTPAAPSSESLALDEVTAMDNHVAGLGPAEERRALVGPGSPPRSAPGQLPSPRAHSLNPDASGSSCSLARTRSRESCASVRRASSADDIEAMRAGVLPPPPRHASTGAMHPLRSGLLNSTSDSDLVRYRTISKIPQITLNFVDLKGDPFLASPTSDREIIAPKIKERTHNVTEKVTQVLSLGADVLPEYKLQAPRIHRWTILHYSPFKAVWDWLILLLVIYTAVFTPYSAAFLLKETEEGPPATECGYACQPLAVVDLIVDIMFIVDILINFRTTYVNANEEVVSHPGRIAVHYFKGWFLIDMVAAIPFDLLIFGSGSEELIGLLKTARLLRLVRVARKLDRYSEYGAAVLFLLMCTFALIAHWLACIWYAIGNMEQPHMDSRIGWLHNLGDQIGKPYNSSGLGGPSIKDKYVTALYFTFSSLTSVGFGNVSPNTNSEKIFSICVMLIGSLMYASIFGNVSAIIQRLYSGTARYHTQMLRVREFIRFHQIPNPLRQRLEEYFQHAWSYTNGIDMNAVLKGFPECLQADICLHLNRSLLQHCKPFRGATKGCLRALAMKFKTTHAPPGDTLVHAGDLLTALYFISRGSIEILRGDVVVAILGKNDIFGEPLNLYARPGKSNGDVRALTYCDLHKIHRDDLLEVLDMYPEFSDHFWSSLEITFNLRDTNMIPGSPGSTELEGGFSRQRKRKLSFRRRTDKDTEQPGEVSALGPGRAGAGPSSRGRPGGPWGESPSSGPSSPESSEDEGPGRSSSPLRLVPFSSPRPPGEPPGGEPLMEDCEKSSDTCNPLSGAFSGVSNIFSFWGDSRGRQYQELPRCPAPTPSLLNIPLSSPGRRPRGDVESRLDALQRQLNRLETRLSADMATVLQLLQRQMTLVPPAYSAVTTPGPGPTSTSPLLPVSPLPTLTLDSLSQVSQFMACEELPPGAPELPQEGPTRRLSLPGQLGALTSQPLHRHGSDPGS

In the case of O=c1[nH]c2ccccc2n1C1CCN(CCCC(c2ccc(F)cc2)c2ccc(F)cc2)CC1 [Pimozide], the “Hill Log-logistic α” value (hERG [1]) is reported as 1.586.
With O=C(CCCN1CCC(O)(c2ccc(Cl)cc2)CC1)c1ccc(F)cc1 [Haloperidol] the “Hill Log-logistic α” value (hERG [1]) was 1.469.
For Cc1cn(-c2cc(NC(=O)c3ccc(C)c(Nc4nccc(-c5cccnc5)n4)c3)cc(C(F)(F)F)c2)cn1 [Nilotinib], the “QTc prolongation observed in the TQT study” value [2] is listed as 15.8 ms and the IC50 (hERG [3]) is listed as […].
In the case of COc1cc2nc(N(C)CCCNC(=O)C3CCCO3)nc(N)c2cc1OC (centres unmarked) [Alfuzosin], the “QTc prolongation observed in the TQT study” value [2] is listed as 7.7 ms.
